Test results from ChEMBL document CHEMBL4043278, “Discovery of benzo[g]indoles as a novel class of non-covalent Keap1-Nrf2 protein-protein interaction inhibitor” (Bioorg Med Chem Lett, 2017).
Calls of active or inactive are those of the source. The rule behind the calls is not given here.

Experiments:
[1] = Metabolic stability in human liver microsomes assessed as parent compound remaining at 1 uM preincubated for 3 mins followed by NADP+ addition measured after 30 mins by LC-MS assay; format: ADME, microsome; conditions: read-out: Stability
HepG2 = experiment: Cytotoxicity against human HepG2 cells assessed as reduction in cell viability at 50 uM after 24 hrs by WST8 assay; format: cell-based; conditions: hepg2, 24 h
[2] = biological target: T1, Kelch-like ECH-associated protein 1/Nuclear factor erythroid 2-related factor 2 (Mus musculus) (UniProt Q60795+Q9Z2X8); experiment: Inhibition of Keap1-Nrf2 protein-protein interaction in MEF assessed as increase in Nrf2 activation mediated NQO1 mRNA level at 100 uM after 4 hrs by qRT-PCR method
T1 sequence (Q60795 whole entry, looked up): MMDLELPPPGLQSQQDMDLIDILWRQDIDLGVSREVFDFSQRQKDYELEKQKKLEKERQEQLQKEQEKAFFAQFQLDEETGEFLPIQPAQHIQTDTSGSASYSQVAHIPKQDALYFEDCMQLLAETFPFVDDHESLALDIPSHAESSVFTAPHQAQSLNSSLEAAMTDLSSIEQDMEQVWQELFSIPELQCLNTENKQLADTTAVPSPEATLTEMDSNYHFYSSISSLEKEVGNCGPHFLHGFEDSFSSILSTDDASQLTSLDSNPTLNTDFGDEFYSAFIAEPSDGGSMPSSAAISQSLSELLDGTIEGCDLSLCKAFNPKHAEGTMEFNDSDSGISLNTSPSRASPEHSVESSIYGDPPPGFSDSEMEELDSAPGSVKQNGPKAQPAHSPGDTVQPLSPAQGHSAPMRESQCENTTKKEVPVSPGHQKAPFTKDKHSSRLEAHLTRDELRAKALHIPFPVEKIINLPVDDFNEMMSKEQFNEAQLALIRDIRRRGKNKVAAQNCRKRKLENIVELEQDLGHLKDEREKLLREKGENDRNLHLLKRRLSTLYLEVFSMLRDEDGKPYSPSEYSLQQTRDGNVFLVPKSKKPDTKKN
T1 sequence (Q9Z2X8 whole entry, looked up): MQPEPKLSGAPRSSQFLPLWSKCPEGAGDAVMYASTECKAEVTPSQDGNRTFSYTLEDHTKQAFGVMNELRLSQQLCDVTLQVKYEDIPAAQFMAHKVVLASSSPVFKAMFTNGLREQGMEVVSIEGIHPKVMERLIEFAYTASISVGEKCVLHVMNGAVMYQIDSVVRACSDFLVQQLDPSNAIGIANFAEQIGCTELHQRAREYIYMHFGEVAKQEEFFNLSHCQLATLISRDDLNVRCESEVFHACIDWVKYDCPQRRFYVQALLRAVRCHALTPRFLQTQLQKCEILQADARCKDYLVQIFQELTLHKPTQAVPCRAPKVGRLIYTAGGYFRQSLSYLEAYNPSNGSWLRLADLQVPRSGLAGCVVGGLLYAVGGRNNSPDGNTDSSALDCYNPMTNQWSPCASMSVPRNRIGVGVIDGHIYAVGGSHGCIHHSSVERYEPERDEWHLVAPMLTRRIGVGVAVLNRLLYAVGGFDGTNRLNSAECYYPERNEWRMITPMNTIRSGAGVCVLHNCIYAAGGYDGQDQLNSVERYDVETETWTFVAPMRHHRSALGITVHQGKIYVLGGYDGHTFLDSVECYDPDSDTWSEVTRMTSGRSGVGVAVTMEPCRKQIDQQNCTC

[3] = biological target: T1, Kelch-like ECH-associated protein 1/Nuclear factor erythroid 2-related factor 2 (Mus musculus); experiment: Inhibition of Keap1-Nrf2 protein-protein interaction in MEF assessed as increase in Nrf2 activation mediated NQO1 mRNA level at 10 uM after 4 hrs by qRT-PCR method

SMILES | remaining at 0.5 h, 1 µM [1] | Activity (HepG2) | inhibition [2] | inhibition [3]
COc1ccc(S(=O)(=O)Nc2cc3c(C(=O)NNc4ccccc4)c(C)n(S(=O)(=O)c4ccc(OC)cc4)c3c3ccccc23)cc1 | 85.4% | Non-Toxic |  | 
COc1cccc2c1C(=O)c1c(O)c3c(c(O)c1C2=O)C[C@@](O)(C(=O)CO)C[C@@H]3O[C@H]1C[C@H](N)[C@H](O)[C@H](C)O1 [DOXORUBICIN] |  | Toxic |  | 
CNNC(=O)c1c(C)n(S(=O)(=O)c2ccc(OC)cc2)c2c1cc(NS(=O)(=O)c1ccc(OC)cc1)c1ccccc12 | 90.8% | Non-Toxic |  | 
CCOc1ccc(S(=O)(=O)Nc2cc3c(C(=O)NO)c(C)n(S(=O)(=O)c4ccc(OCC)cc4)c3c3ccccc23)cc1 | 81% | Non-Toxic | Active | 
COc1ccc(NNC(=O)c2c(C)n(S(=O)(=O)c3ccc(OC)cc3)c3c2cc(NS(=O)(=O)c2ccc(OC)cc2)c2ccccc23)cc1 | 94.8% | Non-Toxic |  | 
CCOc1ccc(S(=O)(=O)Nc2cc3c(C(=O)NN)c(C)n(S(=O)(=O)c4ccc(OCC)cc4)c3c3ccccc23)cc1 | 46.6% | Non-Toxic |  | 
CC(C)(C)c1cc(O)ccc1O |  |  |  | Active
COc1ccc(S(=O)(=O)Nc2ccc(NS(=O)(=O)c3ccc(OC)cc3)c3ccccc23)cc1 | 9.3% |  |  | 
COc1ccc(S(=O)(=O)Nc2cc3c(C(=O)NNc4ccc([N+](=O)[O-])cc4)c(C)n(S(=O)(=O)c4ccc(OC)cc4)c3c3ccccc23)cc1 | 86.5% | Toxic |  | 
COc1ccc(S(=O)(=O)N(CC(=O)O)c2ccc(N(CC(=O)O)S(=O)(=O)c3ccc(OC)cc3)c3ccccc23)cc1 | 58.6% | Non-Toxic |  | 
